This is an account of results in US7618816B2, “Metal-binding therapeutic peptides” (Ontherix, Inc., priority 2005, dated 2009).

One data set deals with CCRF-CEM. As to the kind of experiment: Cytotoxicity of MBD therapeutic peptides. To be noted: relative to equal dose of control MBD peptide, only p < 0.05 shown, 1-4 experiments. It counts as cell-based, human. The source says: (§1) Also, peptides such as NFKB and CSK are of interest, targeting stress-coping mechanisms such as inflammation. The breast cancer lines tested are HS578T, MX-1, MDA-MB231, MDA-MB435 and MCF7. Leukemia cell lines tested for cytotoxicity effects with these MBD-tagged peptides are CCRF-CEM, RPMI-8226 and MOLT-4. Overall, MCF-7 and CCRF-CEM yield the most consistent data and the strongest effect across the board (Table 12). In addition, elevated levels of cytotoxicity are observed when multiple peptides are combined while keeping the overall amount of peptide added constant. Cytotoxicity increases with the number of peptides added per cocktail and is further enhanced by combining peptide cocktail treatment with paclitaxel.

Another data set deals with MCF-7. As to the kind of experiment: Cytotoxicity of MBD therapeutic peptides. It counts as cell-based, human. To be noted: relative to equal dose of control MBD peptide, only p < 0.05 shown, 1-4 experiments.
Source text: as §1

For a further data set, the system named is MOLT-4. As to the kind of experiment: Cytotoxicity of MBD therapeutic peptides. It counts as cell-based, human. To be noted: relative to equal dose of control MBD peptide, only p < 0.05 shown, 1-4 experiments.
Source text: as §1

In the next data set the test system is Hs578T. As to the kind of experiment: Cytotoxicity of MBD therapeutic peptides. Particulars: relative to equal dose of control MBD peptide, only p < 0.05 shown, 1-4 experiments. Type of data set: cell-based.
Source text: as §1

Another data set deals with MDA-MB231. As to the kind of experiment: Cytotoxicity of MBD therapeutic peptides. It counts as cell-based, human. To be noted: relative to equal dose of control MBD peptide, only p < 0.05 shown, 1-4 experiments.
Source text: as §1

The test system of another data set is MX-I. As to the kind of experiment: Cytotoxicity of MBD therapeutic peptides. Type of data set: cell-based, human. Particulars: relative to equal dose of control MBD peptide, only p < 0.05 shown, 1-4 experiments.
Source text: as §1

The subject of the next data set is RPMI-8826. As to the kind of experiment: Cytotoxicity of MBD therapeutic peptides. Type of data set: cell-based, human. To be noted: relative to equal dose of control MBD peptide, only p < 0.05 shown, 1-4 experiments.
Source text: as §1

Another data set concerns SR. As to the kind of experiment: Cytotoxicity of MBD therapeutic peptides. It counts as cell-based. Particulars: relative to equal dose of control MBD peptide, only p < 0.05 shown, 1-4 experiments.
For the next data set, the system named is MDA-MB435. As to the kind of experiment: Cytotoxicity of MBD therapeutic peptides. Type of data set: cell-based. Particulars: relative to equal dose of control MBD peptide, only p < 0.05 shown, 1-4 experiments.
Source text: as §1

In the next data set the test system is cancer cells. As to the kind of experiment: Selective cytotoxicity, cancer cells versus normal counterparts. Type of data set: cell-based, human.
Source text: as §1

Where “and” joins values, the source holds several entries; their conditions need not be identical. Equal values may be shown once. Where a SMILES comes first, the peptide text is derived from it. Where no end group is shown, it is not given here. The star is where a group is joined. Biotin = O=C1N[C@H]2[C@H](CS[C@H]2CCCCC(=O)*)N1

Turning to `CC(C)[C@H](NC(=O)[C@H](C)NC(=O)[C@H](Cc1c[nH]c2ccccc12)NC(=O)[C@H](CS)NC(=O)[C@H](Cc1ccccc1)NC(=O)CNC(=O)[C@H](CCCNC(=N)N)NC(=O)[C@H](CCCCN)NC(=O)[C@H](CCCNC(=N)N)NC(=O)CNC(=O)[C@H](CCCCN)NC(=O)[C@H](CO)NC(=O)[C@@H]1CCCN1C(=O)[C@H](CCCNC(=N)N)NC(=O)[C@H](CS)NC(=O)[C@H](CCC(N)=O)NC(=O)[C@H](CCCCN)NC(=O)[C@H](CCCCN)NC(=O)[C@H](CCCCN)NC(=O)[C@H](Cc1ccc(O)cc1)NC(=O)[C@H](Cc1ccccc1)NC(=O)CNC(=O)[C@H](CCCCN)NC(=O)[C@H](CCCCN)NC(=O)CCCC[C@@H]1SC[C@@H]2NC(=O)N[C@@H]21)C(=O)N[C@@H](C)C(=O)N[C@@H](CCC(=O)O)C(=O)N[C@@H](Cc1ccc(O)cc1)C(=O)N[C@@H](C)C(=O)N[C@@H](CCCNC(=N)N)C(=O)N[C@H](C(=O)N[C@@H](CCC(N)=O)C(=O)N[C@@H](CCCCN)C(=O)N[C@@H](CCCNC(=N)N)C(=O)N[C@@H](CCCCN)C(=O)O)C(C)C` [CSK] (Biotin-KKGFYKKKQCRPSKGRKRGFCWAVAEYARVQKRK-OH), the “% viability @ 48 hr/25 ug/ml peptide, CCRF-CEM” value in the data set with CCRF-CEM was 75.1 ± 4.5% and 85.5 ± 2.3%. Also, the “% viability @ 48 hr/25 ug/ml peptide, MCF-7” value in the data set with MCF-7 was 21.1 ± 4.1% and 41.3 ± 5.8%. Further, the “% viability @ 48 hr/25 ug/ml peptide, MOLT-4” value in the data set on MOLT-4 is 81.0 ± 7.1% and 54.8 ± 9.7%. The “% viability @ 48 hr/25 ug/ml peptide, Hs578T” value in the data set with Hs578T is 50.2 ± 1.6% and 76.3 ± 0.6%.

Regarding `CC(C)C[C@H](NC(=O)[C@H](CC(C)C)NC(=O)[C@H](CCCCN)NC(=O)[C@H](Cc1c[nH]c2ccccc12)NC(=O)[C@@H](NC(=O)[C@H](CC(=O)O)NC(=O)[C@H](CO)NC(=O)[C@H](Cc1ccccc1)NC(=O)[C@@H](NC(=O)[C@H](CCC(=O)O)NC(=O)CCCC[C@@H]1SC[C@@H]2NC(=O)N[C@@H]21)[C@@H](C)O)C(C)C)C(=O)N[C@@H](CCCCN)C(=O)N[C@@H](CCCCN)C(=O)NCC(=O)N[C@@H](Cc1ccccc1)C(=O)N[C@@H](Cc1ccc(O)cc1)C(=O)N[C@@H](CCCCN)C(=O)N[C@@H](CCCCN)C(=O)N[C@@H](CCCCN)C(=O)N[C@@H](CCC(N)=O)C(=O)N[C@@H](CS)C(=O)N[C@@H](CCCNC(=N)N)C(=O)N1CCC[C@H]1C(=O)N[C@@H](CO)C(=O)N[C@@H](CCCCN)C(=O)NCC(=O)N[C@@H](CCCNC(=N)N)C(=O)N[C@@H](CCCCN)C(=O)N[C@@H](CCCNC(=N)N)C(=O)NCC(=O)N[C@@H](Cc1ccccc1)C(=O)N[C@@H](CS)C(=O)N[C@@H](Cc1c[nH]c2ccccc12)C(=O)O` [PEP-2] (Biotin-ETFSDVWKLLKKGFYKKKQCRPSKGRKRGFCW-OH), the “% viability @ 48 hr/25 ug/ml peptide, MCF-7” value in the data set on MCF-7 is 19.3 ± 6.3% and 33.5 ± 4.4% and 35.6 ± 5.7%. In addition, the “% viability @ 48 hr/25 ug/ml peptide, MDA-MB231” value in the data set on MDA-MB231 was 40.7 ± 1.8%. Further, in the data set with MOLT-4, the “% viability @ 48 hr/25 ug/ml peptide, MOLT-4” value was 63.5 ± 7.7% and 57.9 ± 1.3% and 88.2 ± 2.6%. The “% viability @ 48 hr/25 ug/ml peptide, MX-I” value in the data set with MX-I is 6.8 ± 1.5% and 9.0 ± 0.6%. Besides, the “% viability @ 48 hr/25 ug/ml peptide, RPMI-8826” value in the data set on RPMI-8826 is given as 38.4 ± 4.2%. The “% viability @ 48 hr/25 ug/ml peptide, SR” value in the data set with SR worked out at 33.7 ± 16.0%. For the same compound, the “% viability @ 48 hr/25 ug/ml peptide, Hs578T” value in the data set on Hs578T is 31.1 ± 3.0% and 33.5 ± 2.3%. The “% viability @ 48 hr/25 ug/ml peptide, MDA-MB435” value in the data set on MDA-MB435 stood at 18.5 ± 1.0%. Besides, in the data set with cancer cells, the “Cytotoxic effect on cancer cells versus normal counterparts (in words)” value is listed as “strong cytotoxic effect on cancer cells but not their human counterparts”.

Regarding `CC(C)C[C@H](NC(=O)[C@H](C)NC(=O)[C@H](C)NC(=O)[C@H](Cc1c[nH]c2ccccc12)NC(=O)[C@H](CS)NC(=O)[C@H](Cc1ccccc1)NC(=O)CNC(=O)[C@H](CCCNC(=N)N)NC(=O)[C@H](CCCCN)NC(=O)[C@H](CCCNC(=N)N)NC(=O)CNC(=O)[C@H](CCCCN)NC(=O)[C@H](CO)NC(=O)[C@@H]1CCCN1C(=O)[C@H](CCCNC(=N)N)NC(=O)[C@H](CS)NC(=O)[C@H](CCC(N)=O)NC(=O)[C@H](CCCCN)NC(=O)[C@H](CCCCN)NC(=O)[C@H](CCCCN)NC(=O)[C@H](Cc1ccc(O)cc1)NC(=O)[C@H](Cc1ccccc1)NC(=O)CNC(=O)[C@H](CCCCN)NC(=O)[C@H](CCCCN)NC(=O)CCCC[C@@H]1SC[C@@H]2NC(=O)N[C@@H]21)C(=O)N[C@@H](CC(=O)O)C(=O)N[C@@H](Cc1c[nH]c2ccccc12)C(=O)N[C@@H](CO)C(=O)N[C@@H](Cc1c[nH]c2ccccc12)C(=O)N[C@@H](CC(C)C)C(=O)N[C@@H](CCC(N)=O)C(=O)N[C@H](C(=O)O)[C@@H](C)O` [NEMO] (Biotin-KKGFYKKKQCRPSKGRKRGFCWAALDWSWLQT-OH), the “% viability @ 48 hr/25 ug/ml peptide, MCF-7” value with MCF-7 is given as 77.0 ± 46.7%. The “% viability @ 48 hr/25 ug/ml peptide, MDA-MB231” value in the data set on MDA-MB231 came to 79.0 ± 0.8%. Moreover, the “% viability @ 48 hr/25 ug/ml peptide, MX-I” value in the data set with MX-I stood at 59.1 ± 3.2%. For the same compound, the “% viability @ 48 hr/25 ug/ml peptide, SR” value in the data set with SR is 56.9 ± 6.2%. Further, the “% viability @ 48 hr/25 ug/ml peptide, Hs578T” value with Hs578T was determined as 81.3 ± 3.0%. Besides, the “% viability @ 48 hr/25 ug/ml peptide, MDA-MB435” value with MDA-MB435 is 67.4 ± 21.1% and 90.2 ± 3.6%.

For the compound `CSCC[C@H](NC(=O)[C@H](CC(C)C)NC(=O)[C@H](CCCCN)NC(=O)[C@H](CCC(N)=O)NC(=O)[C@H](CCCNC(=N)N)NC(=O)[C@H](CCCCN)NC(=O)[C@H](CCCNC(=N)N)NC(=O)[C@H](CCC(N)=O)NC(=O)[C@@H](NC(=O)[C@@H]1CCCN1C(=O)[C@H](C)NC(=O)[C@H](Cc1c[nH]c2ccccc12)NC(=O)[C@H](CS)NC(=O)[C@H](Cc1ccccc1)NC(=O)CNC(=O)[C@H](CCCNC(=N)N)NC(=O)[C@H](CCCCN)NC(=O)[C@H](CCCNC(=N)N)NC(=O)CNC(=O)[C@H](CCCCN)NC(=O)[C@H](CO)NC(=O)[C@@H]1CCCN1C(=O)[C@H](CCCNC(=N)N)NC(=O)[C@H](CS)NC(=O)[C@H](CCC(N)=O)NC(=O)[C@H](CCCCN)NC(=O)[C@H](CCCCN)NC(=O)[C@H](CCCCN)NC(=O)[C@H](Cc1ccc(O)cc1)NC(=O)[C@H](Cc1ccccc1)NC(=O)CNC(=O)[C@H](CCCCN)NC(=O)[C@H](CCCCN)NC(=O)CCCC[C@@H]1SC[C@@H]2NC(=O)N[C@@H]21)C(C)C)C(=O)N1CCC[C@H]1C(=O)O` [NFKB] (Biotin-KKGFYKKKQCRPSKGRKRGFCWAPVQRKRQKLMP-OH), the “% viability @ 48 hr/25 ug/ml peptide, CCRF-CEM” value with CCRF-CEM came out at 47.4 ± 13.9%. Besides, the “% viability @ 48 hr/25 ug/ml peptide, MCF-7” value in the data set with MCF-7 was determined as 32.8 ± 17.7%. For the same compound, the “% viability @ 48 hr/25 ug/ml peptide, MDA-MB231” value with MDA-MB231 is reported as 91.6 ± 6.1%. The “% viability @ 48 hr/25 ug/ml peptide, MOLT-4” value in the data set on MOLT-4 is 35.9 ± 6.8% and 22.5 ± 3.5%. Besides, the “% viability @ 48 hr/25 ug/ml peptide, MX-I” value in the data set with MX-I was found to be 74.1 ± 6.1%. In addition, in the data set on RPMI-8826, the “% viability @ 48 hr/25 ug/ml peptide, RPMI-8826” value is 64.6 ± 14.3%. In the data set with Hs578T, the “% viability @ 48 hr/25 ug/ml peptide, Hs578T” value was 36.3 ± 5.6% and 30.6 ± 2.7%. Also, the “% viability @ 48 hr/25 ug/ml peptide, MDA-MB435” value with MDA-MB435 is 18.0 ± 1.6% and 29.6 ± 2.6%.

For “Biotin-KKGFYKKKQCRPSKGRKRGFCWAVQTLLQQMQDKFQTMSDQI (cysteines drawn unpaired) [M9HSBP2]”, the “% viability @ 48 hr/25 ug/ml peptide, CCRF-CEM” value in the data set with CCRF-CEM worked out at 92.6 ± 2.0%. In addition, the “% viability @ 48 hr/25 ug/ml peptide, MOLT-4” value in the data set with MOLT-4 stood at 94.2 ± 17.1%. The “% viability @ 48 hr/25 ug/ml peptide, RPMI-8826” value with RPMI-8826 is 81.7 ± 2.9%. Also, the “% viability @ 48 hr/25 ug/ml peptide, SR” value in the data set with SR is 88.9 ± 4.0% and 87.7 ± 6.7%.
